Earlier results in patent US6645979B2, “(7-(3-carboxyphenyl)-4-chloroisoquinolin-1-yl)guanidine” (Pfizer Inc., priority 2000, dated 2003).

Molecular target: urinary-type plasminogen activator (uPA, urokinase) (Homo sapiens, UniProt P00749)
Conditions: general statement, no value given

Q: With NC(N)=Nc1ncc(Cl)c2ccc(-c3cccc(C(=O)O)c3)cc12 [Compound (I), (7-(3-carboxyphenyl)-4-chloroisoquinolin-1-yl)guanidine] as the molecule, how does the uPA antagonist potency read?
A: Its uPA antagonist potency is “potent”.
